Converted amounts (≈) assume the structure as drawn. Where two headings read alike, the source gives them in different places.
What was measured:
E. coli = assay: Broth microdilution MIC against characterized subsets of UTI E. coli (2018-2020); assay type: cell-based; conditions: for MIC50 / MIC90: Escherichia coli; for MIC50: read-out: MIC50; for MIC90: read-out: MIC90
Source text: Isolates were collected from medical centers in all 9 US Census Regions and tested by broth microdilution. MIC interpretation was based on CLSI. Isolates that met MIC criteria were subjected to genome sequencing, followed by screening of extended-spectrum b-lactamase (ESBL) genes and epidemiology typing (MLST).

[1] = test system: other methicillin-susceptible coagulase-negative staphylococci (MSCONS); assay: Broth microdilution against Gram-positive clinical isolates; assay type: cell-based; conditions: 29 isolates
Method: The purpose of this study was to investigate the in vitro activity of tebipenem and comparator agents, including ertapenem and meropenem, against a recent collection of Gram-positive isolates associated with clinical infections. The susceptibility of 580 Gram-positive organisms were tested, including: […] Bacterial species were identified by JMI Laboratories using standard microbiology methods and matrix-assisted laser desorption ionization-time of flight mass spectrometry (Bruker Daltonics, Bremen, Germany). […] Isolates were tested in a central laboratory (JMI Laboratories) for antimicrobial susceptibility using the CLSI […] (2018) reference broth microdilution method. JMI Laboratories produced frozen-form 96-well panels and used cation-adjusted Mueller-Hinton broth (CA-MHB) as the testing medium. […] Quality control organisms include Escherichia coli ATCC 25922, Escherichia coli ATCC 35218, Enterococcus faecalis ATCC 29212, Pseudomonas aeruginosa ATCC 27853, and Staphylococcus aureus ATCC 29213 were tested concurrently with clinical isolates.

## C[C@@H](O)[C@H]1C(=O)N2C(C(=O)O)=C(S[C@@H]3CN[C@H](C(=O)Nc4cccc(C(=O)O)c4)C3)[C@H](C)[C@H]12 [Ertapenem, ertapenem]
E. coli; CMYb (33)
  % susceptible by CLSI M100 criteria: 90.6%
  MIC50: 0.06 µg/mL (≈ 0.126 µM)
E. coli; CTX-M a
  % susceptible by CLSI M100 criteria: 98.9%
  MIC50: 0.03 µg/mL (≈ 0.0631 µM)
  MIC90: 0.12 µg/mL (≈ 0.252 µM)
E. coli; DHA(7)
  % susceptible by CLSI M100 criteria: 85.7%
  MIC50: 0.06 µg/mL (≈ 0.126 µM)
E. coli; ESBL (360)
  % susceptible by CLSI M100 criteria: 97.4%
  MIC50: 0.03 µg/mL (≈ 0.0631 µM)
  MIC90: 0.12 µg/mL (≈ 0.252 µM)
E. coli; Non-ESBL (2035)
  MIC50: ≤ 0.008 µg/mL
  MIC90: 0.015 µg/mL (≈ 0.0315 µM)
  % susceptible by CLSI M100 criteria: 100%
E. coli; Non-ST131 (203)
  MIC50: 0.015 µg/mL (≈ 0.0315 µM)
  % susceptible by CLSI M100 criteria: 97.0%
E. coli; ST131 (222)
  MIC90: 0.06 µg/mL (≈ 0.126 µM)
  % susceptible by CLSI M100 criteria: 99.1%
E. coli; against the various subsets
  % susceptible: ≥ 97.0%
E. coli; isolates carrying plasmid AmpC
  susceptibility rates: 85.7-90.6%
[1]
  MIC90: 1 µg/mL (≈ 2.1 µM)
